Key:
hMAO-A = biological target: T1, hMAO-A (Homo sapiens, UniProt P21397); test: Recombinant human MAO-A inhibition screening (Amplex Red, p-tyramine); format: biochemical; settings: for Selectivity index: IC50 (MAO-A)/IC50 (MAO-B); for IC50: recombinant hMAO-A, p-tyramine substrate, mean SEM
T1 construct: purchased Sigma-Aldrich; host or cells: insect cells (BTI-TN-5B14) infected with recombinant baculovirus
T1 sequence (P21397 1-527): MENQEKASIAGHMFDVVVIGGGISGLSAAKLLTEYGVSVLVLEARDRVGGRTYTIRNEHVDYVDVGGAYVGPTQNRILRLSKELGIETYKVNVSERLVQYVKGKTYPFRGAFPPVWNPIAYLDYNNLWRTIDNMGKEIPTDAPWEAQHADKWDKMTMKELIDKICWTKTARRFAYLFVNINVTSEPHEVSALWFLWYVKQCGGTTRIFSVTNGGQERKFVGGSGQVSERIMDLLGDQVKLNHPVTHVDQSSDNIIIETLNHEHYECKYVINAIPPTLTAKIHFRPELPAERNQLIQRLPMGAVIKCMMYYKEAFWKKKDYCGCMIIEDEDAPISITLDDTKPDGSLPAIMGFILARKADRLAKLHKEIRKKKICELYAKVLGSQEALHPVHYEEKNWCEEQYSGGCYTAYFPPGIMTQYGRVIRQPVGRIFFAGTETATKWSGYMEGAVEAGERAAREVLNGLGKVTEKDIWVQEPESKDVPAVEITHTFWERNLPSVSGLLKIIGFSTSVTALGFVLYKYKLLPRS
Source text: (§1) To evaluate IC50 values for the inhibition of human MAO-A and MAO-B by newly synthesized compounds the commercially available recombinant human enzymes expressed in insect cells were used (Sigma-Aldrich). The MAO inhibition assay was based on the method described by Anderson et al., 1993 and Chimenti et al. with some modifications. The Amplex Red MAO Kit tyramine (Sigma-Aldrich) affords a suitable fluorimetric method to evaluate MAO enzyme action of synthetic and natural compounds. In the assay, MAO reacts with p-tyramine, a common substrate for both MAO isoforms, ensuing in the production of H2O2, which is identified by a fluorimetric method (λex = 530/λem = 585 nm). Each test well contained 0.1 mL of sodium phosphate buffer (0.05 M, pH 7.4), a range of concentrations of the eugenol based derivatives or reference compounds along with recombinant hMAO-A or hMAO-B in appropriate quantity. After the preparation of this mixture the wells were subjected to incubation for 15 min at 37 °C, placed in the dark fluorimeter chamber. Once this incubation period over, the process was rendered by mixing 200 µM Amplex Red reagent (Sigma-Aldrich), 1 U/mL horseradish peroxidase (Sigma-Aldrich) and p-tyramine (Sigma-Aldrich). Subsequently, the formation of hydrogen peroxide exerted by MAO isoforms was quantified by using Amplex-Red reagent, a non-fluorescent probe that reacts with H2O2 in the existence of horse radish peroxidase to generate the fluorescent component resorufin. Moreover, the control analysis was calculated in the absence of compound and reference inhibitors. The probability of compounds to change the fluorescence produced in the reaction mix due to non-enzymatic inhibition was assessed by mixing titled compounds to solutions of single Amplex Red reagent in a sodium phosphate buffer. Data were processed in Microsoft Excel, to calculate IC50 values.

hMAO-B = biological target: T2, hMAO-B (Homo sapiens, UniProt P27338); test: Recombinant human MAO-B inhibition screening (Amplex Red, p-tyramine); format: biochemical; settings: p-tyramine substrate, mean SEM
T2 construct: purchased Sigma-Aldrich; host or cells: insect cells (BTI-TN-5B14) infected with recombinant baculovirus
T2 sequence (P27338 1-520): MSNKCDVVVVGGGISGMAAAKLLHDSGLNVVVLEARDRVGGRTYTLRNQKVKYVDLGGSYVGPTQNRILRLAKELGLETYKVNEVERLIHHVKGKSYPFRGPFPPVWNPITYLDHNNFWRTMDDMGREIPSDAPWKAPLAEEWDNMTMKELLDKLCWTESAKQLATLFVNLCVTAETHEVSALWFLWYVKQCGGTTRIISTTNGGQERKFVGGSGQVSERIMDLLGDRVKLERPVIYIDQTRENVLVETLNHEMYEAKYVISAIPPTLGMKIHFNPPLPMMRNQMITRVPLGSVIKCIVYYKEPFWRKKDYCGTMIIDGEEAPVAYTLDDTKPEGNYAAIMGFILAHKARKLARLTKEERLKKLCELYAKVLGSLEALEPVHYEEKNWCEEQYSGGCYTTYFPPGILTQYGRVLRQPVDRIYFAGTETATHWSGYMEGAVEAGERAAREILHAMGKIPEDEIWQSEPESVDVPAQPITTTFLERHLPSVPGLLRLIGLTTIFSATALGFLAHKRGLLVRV
Source text: as §1

DPPH scavenging activity = settings: Table 6, mean ± SEM, n = 3
Experimental: Solutions of synthesized compounds were set in ethanol/water (1:1) having 10 mM to 100 mM at a period of 10 mM. The 0.01% DPPH· stock solution was prepared in ethanol/water (1:1). Samples were prepared as 5 mL DPPH· solution was mixed with 5 mL L-ascorbic acid solution then shaken vigorously and kept in the dark. Corresponding blank sample were prepared and L-ascorbic acid was used as reference standard. […] The actual decrease in absorption induced by the test was compared with the positive controls. The IC50 values were calculated use the dose inhibition curve in linear range by plotting the extract concentration versus the corresponding scavenging effect through following equation [(ADR − APR)/AO] × 100. Where ADR is the absorbance prior to reaction and APR is the absorbance after reaction with DPPH·.

[1] = Hydrogen peroxide scavenging (H2O2) assay; settings: Table 7, mean ± SEM, n = 3
Experimental: Hydrogen peroxide generally turns into water and oxygen and produces highly toxic hydroxyl radical that renders the damage to DNA and peroxidation of lipid. H2O2 scavenging ability of eugenol based derivatives was evaluated by method described by Nakano and colleagues with some alteration. The hydrogen peroxide solution (40 mM) was prepared in phosphate buffer (40 mM pH 7.4) and addition of several ranges of synthesized derivatives (05–80 μg/mL) was done into H2O2 solution (2 mL). The determination of H2O2 concentration was done by UV/Vis Epoch ELISA reader at 230 nm upon incubation of 10 min. Solution of phosphate buffer without H2O2 was noted as blank reading. The hydrogen peroxide percentage inhibition was estimated through the formula [(AH − AD)/AO] × 100, where AH is the absorbance of the control and AD is the absorbance of compounds/reference taken as 05–80 μg/mL L-ascorbic acid.

[2] = Nitric oxide scavenging activity; settings: Table 8, mean ± SEM, n = 3
Source text: The generation of nitric oxide (NO·) on biological tissues is mediated by particular nitric oxide synthases enzyme that control the catabolism of the arginine to citrulline via creation of NO through a five electron oxidative reaction. At the physiological pH (7.2) in aqueous solution sodium nitroprusside decompose to produce NO·. Finally, NO· reacts with oxygen at underaerobic conditions and produces stable products (nitrate and nitrite), this amount can be determined by means of Griess reagent. The procedure for the nitric oxide scavenging activity was adopted from reports of Alam et al..

[3] = Ferric reducing antioxidant power (FRAP) assay; settings: Table 9, mean ± SEM, n = 3;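 also: Ferrous-TPTZ reduction read as absorbance at 593 nm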
Experimental: The capacity of antioxidants to decrease ferric iron is measured by this method. The reaction of […] (TPTZ) and complex ferric iron yields ferrous form at low pH. […] This method was adopted from the reports of Benzie et al..

Row | Compound | Selectivity index (hMAO-A) | IC50 (hMAO-A) | IC50 (hMAO-B) | DPPH scavenging IC50 (DPPH scavenging activity) | H2O2 scavenging IC50 [1] | Nitric oxide scavenging IC50 [2] | FRAP IC50 [3] | melting point
1 | C=CCc1ccc(OCC(=O)NNC(=O)c2ccccn2)c(OC)c1 [Compound 11, N′-(2-(4-allyl-2-methoxyphenoxy)acetyl)picolinohydrazide] | 0.67 | 18.06 ± 0.044 µM | 26.8 ± 0.077 µM | 11.21 ± 0.044 µg/mL | 10.33 ± 0.022 µg/mL | 10.71 ± 0.743 µg/mL | 9.126 ± 0.013 µg/mL | 204 to 205 °C
2 | O=C1O[C@H]([C@@H](O)CO)C(O)=C1O [L-Ascorbic acid, reference compound] |  |  |  | 8.58 ± 0.009 µg/mL | 8.121 ± 0.082 µg/mL | 7.523 ± 0.005 µg/mL | 8.112 ± 0.091 µg/mL | 
3 | C=CCc1ccc(OC(=O)/C=C\c2ccccc2)c(OC)c1 [Compound 17, (Z)-4-allyl-2-methoxyphenyl 3-phenylacrylate] | 0.40 | 13.92 ± 0.051 µM | 34.2 ± 0.037 µM | 31.30 ± 0.014 µg/mL | 30.4 ± 0.064 µg/mL | 25.61 ± 0.076 µg/mL | 15.91 ± 0.003 µg/mL | 
4 | C=CCc1ccc(OC(=O)/C=C\c2ccc(O)c(OC)c2)c(OC)c1 [Compound 16, (Z)-4-allyl-2-methoxyphenyl 3-(4-hydroxy-3-methoxyphenyl)acrylate] | 0.14 | 7.348 ± 0.027 µM | 49.15 ± 0.011 µM | 27.70 ± 0.023 µg/mL | 20.6 ± 0.856 µg/mL | 18.63 ± 0.654 µg/mL | 16.88 ± 0.099 µg/mL | 120 to 122 °C

The remaining lines, values ahead:

Row | Selectivity index (hMAO-A) | IC50 (hMAO-A) | IC50 (hMAO-B) | DPPH scavenging IC50 (DPPH scavenging activity) | H2O2 scavenging IC50 [1] | Nitric oxide scavenging IC50 [2] | FRAP IC50 [3] | melting point | Compound
5 | 0.59 | 16.62 ± 0.004 µM | 27.85 ± 0.054 µM | 9.293 ± 0.028 µg/mL | 9.393 ± 0.017 µg/mL | 8.095 ± 0.018 µg/mL | 9.912 ± 0.005 µg/mL | 210 to 211 °C | C=CCc1ccc(OCC(=O)NNC(=O)c2ccccc2S)c(OC)c1 [Compound 9b, N′-(2-(4-allyl-2-methoxyphenoxy)acetyl)-2-mercaptobenzohydrazide]
6 | 0.53 | 15.85 ± 0.039 µM | 29.37 ± 0.048 µM | 9.152 ± 0.063 µg/mL | 9.156 ± 0.002 µg/mL | 7.156 ± 0.002 µg/mL | 5.934 ± 0.053 µg/mL |  | 1-(2-(4-allylphenoxy)acetyl)-4-(4-hydroxybenzoyl)thiosemicarbazide [Compound 5a]
7 | 5.14 | 38.53 ± 0.018 µM | 7.494 ± 0.014 µM | 20.66 ± 0.032 µg/mL | 26.6 ± 0.544 µg/mL | 20.23 ± 0.073 µg/mL | 18.14 ± 0.001 µg/mL | 199 to 200 °C | C=CCc1ccc(OC(=O)c2ccc(O)c(OC)c2)c(OC)c1 [Compound 13a, 4-allyl-2-methoxyphenyl 4-hydroxy-3-methoxybenzoate]
8 | 0.22 | 10.84 ± 0.025 µM | 47.7 ± 0.073 µM | 9.514 ± 0.017 µg/mL | 9.547 ± 0.051 µg/mL | 9.007 ± 0.014 µg/mL | 7.234 ± 0.001 µg/mL | 230 to 231 °C | C=CCc1ccc(OCC(=O)NNC(=O)c2ccccc2O)c(OC)c1 [Compound 9a, N′-(2-(4-allyl-2-methoxyphenoxy)acetyl)-2-hydroxybenzohydrazide]
9 | 0.19 | 5.989 ± 0.007 µM | 31.19 ± 0.016 µM | 8.304 ± 0.073 µg/mL | 8.904 ± 0.034 µg/mL | 6.456 ± 0.023 µg/mL | 5.112 ± 0.009 µg/mL |  | C=CCc1ccc(OCC(=O)NNC(=S)NC(=O)c2cc(O)c(O)c(O)c2)c(OC)c1 [Compound 5b]
10 | 1.76 | 22.38 ± 0.067 µM | 12.66 ± 0.021 µM | 16.04 ± 0.026 µg/mL | 15.7 ± 0.784 µg/mL | 14.63 ± 0.412 µg/mL | 14.63 ± 0.007 µg/mL | 157 to 159 °C | C=CCc1ccc(OC(=O)c2ccccc2O)c(OC)c1 [Compound 13c, 4-allyl-2-methoxyphenyl 2-hydroxybenzoate]
11 | 5.72 | 52.55 ± 0.038 µM | 9.183 ± 0.034 µM | 12.47 ± 0.014 µg/mL | 12.5 ± 0.862 µg/mL | 11.74 ± 0.523 µg/mL | 10.77 ± 0.026 µg/mL | 178 to 179 °C | C=CCc1ccc(OC(=O)c2ccc(O)cc2)c(OC)c1 [Compound 13b, 4-allyl-2-methoxyphenyl 4-hydroxybenzoate]
12 | 1.49 | 20.89 ± 0.023 µM | 13.95 ± 0.005 µM | 14.88 ± 0.018 µg/mL | 14.4 ± 0.143 µg/mL | 11.23 ± 0.032 µg/mL | 12.45 ± 0.017 µg/mL | 182 to 184 °C | C=CCc1ccc(OC(=O)c2ccccc2S)c(OC)c1 [Compound 13d, 4-allyl-2-methoxyphenyl 2-mercaptobenzoate]
